Assay [1] concerns the target T1, Thymidylate synthase (Lactobacillus casei, UniProt P00469).
T1 sequence (P00469 whole entry): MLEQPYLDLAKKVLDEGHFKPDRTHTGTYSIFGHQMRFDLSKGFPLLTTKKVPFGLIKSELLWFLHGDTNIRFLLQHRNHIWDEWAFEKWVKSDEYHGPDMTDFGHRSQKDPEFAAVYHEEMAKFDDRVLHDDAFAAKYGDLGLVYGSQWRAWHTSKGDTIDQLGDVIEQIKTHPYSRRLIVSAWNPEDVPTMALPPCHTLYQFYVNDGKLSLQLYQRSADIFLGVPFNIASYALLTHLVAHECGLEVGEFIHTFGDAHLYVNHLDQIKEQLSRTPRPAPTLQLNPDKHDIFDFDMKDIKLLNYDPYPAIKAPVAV
Briefly: Inhibition of Lactobacillus casei thymidylate synthase using N5,N10-methylene tetrahydrofolate by chromogenic assay. Also on record: species or system Lacticaseibacillus casei.

Assay [2] deals with T2, Thymidylate synthase (Homo sapiens, UniProt P04818). As to the kind of experiment: Inhibition of human thymidylate synthase using N5,N10-methylene tetrahydrofolate at 50 uM by chromogenic assay.
Target sequence in this assay (P04818 2-313 limits assumed): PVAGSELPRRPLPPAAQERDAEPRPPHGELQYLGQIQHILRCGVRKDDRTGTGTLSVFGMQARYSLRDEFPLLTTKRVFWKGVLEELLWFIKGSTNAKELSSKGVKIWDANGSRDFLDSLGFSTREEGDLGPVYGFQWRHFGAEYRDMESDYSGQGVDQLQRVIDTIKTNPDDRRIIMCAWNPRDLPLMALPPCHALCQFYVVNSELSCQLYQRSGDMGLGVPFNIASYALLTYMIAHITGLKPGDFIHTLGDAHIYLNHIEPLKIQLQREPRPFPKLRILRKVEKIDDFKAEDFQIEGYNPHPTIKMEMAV
Assay [3] addresses T3, Thymidylate synthase (Enterococcus faecalis (strain ATCC 700802 / V583)) (UniProt Q834R3).
T3 sequence (whole entry): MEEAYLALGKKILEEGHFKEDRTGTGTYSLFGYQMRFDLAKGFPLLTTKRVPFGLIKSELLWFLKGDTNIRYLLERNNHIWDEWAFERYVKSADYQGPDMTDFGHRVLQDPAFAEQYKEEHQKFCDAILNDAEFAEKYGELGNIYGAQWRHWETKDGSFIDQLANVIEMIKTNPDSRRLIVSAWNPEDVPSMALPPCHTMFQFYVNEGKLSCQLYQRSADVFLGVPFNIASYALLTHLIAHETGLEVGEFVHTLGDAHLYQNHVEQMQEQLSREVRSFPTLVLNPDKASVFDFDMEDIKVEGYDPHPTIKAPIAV
As to the kind of experiment: Inhibition of Enterococcus faecalis thymidylate synthase using N5,N10-methylene tetrahydrofolate at 50 uM by chromogenic assay.

In assay [4] the target is T4, Thymidylate synthase (Enterococcus faecalis (strain ATCC 700802 / V583), UniProt Q834R3).
T4 sequence (Q834R3 whole entry): T3 sequence (whole entry)
Briefly: Inhibition of Enterococcus faecalis thymidylate synthase using N5,N10-methylene tetrahydrofolate by chromogenic assay.

A short description of assay [5]: Inhibition of Escherichia coli thymidylate synthase using N5,N10-methylene tetrahydrofolate by chromogenic assay.
Assay [6] addresses T2, Thymidylate synthase.
Target sequence in this assay (P04818 whole entry): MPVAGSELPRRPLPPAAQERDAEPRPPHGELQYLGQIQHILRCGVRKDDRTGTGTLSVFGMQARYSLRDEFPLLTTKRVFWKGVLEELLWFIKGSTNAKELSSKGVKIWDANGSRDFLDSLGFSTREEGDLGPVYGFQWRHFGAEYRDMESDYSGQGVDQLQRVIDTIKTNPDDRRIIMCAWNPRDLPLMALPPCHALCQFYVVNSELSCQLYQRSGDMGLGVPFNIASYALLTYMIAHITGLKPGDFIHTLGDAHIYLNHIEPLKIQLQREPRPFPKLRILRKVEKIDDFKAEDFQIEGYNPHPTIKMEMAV
Description: Inhibition of human thymidylate synthase using N5,N10-methylene tetrahydrofolate by chromogenic assay
The target in assay [7] is T5, Thymidylate synthase (Lactobacillus casei) (UniProt P00469).
T5 sequence (whole entry): T1 sequence (P00469 whole entry)
As to the kind of experiment: Inhibition of Lactobacillus casei thymidylate synthase using N5,N10-methylene tetrahydrofolate at 50 uM by chromogenic assay. The settings on record: Lacticaseibacillus casei.

pKi: −log10 of the molar value. Activity calls are given as the source filed them. The calls are words filed in the database; no cut-off is given here.

Molecule `CN1C(=O)c2cccc(CNc3ccc(C(=O)O)cn3)c2C1=O` had a pKi at Thymidylate synthase [1] of 4.57. Moreover, the inhibition entry (at Thymidylate synthase [2]; in assay [3]) was “inactive” in each case.
In the case of `Cc1cccc2c1C(=O)N(c1nccs1)C2=O`, the negative-log Ki (pKi) on Thymidylate synthase [4] is 4.96; at Thymidylate synthase [1] it was 5.52. Also, at Thymidylate synthase [2], the inhibition result is “inactive”.
Consider `CN1C(=O)c2cccc(CNc3ccc([N+](=O)[O-])c4ccccc34)c2C1=O`, for which the pKi in assay [5] was 4.04; on Thymidylate synthase [1] it was 5.00. The inhibition result (on Thymidylate synthase [2]; in assay [3]) was “inactive” each time.
The molecule `Cc1cccc2c1C(=O)N(c1cccc(C(=O)O)c1)C2=O` gave a negative-log Ki (pKi) on Thymidylate synthase [1] of 4.16. In assay [3], the inhibition entry was “inactive”.
As to `Cc1cccc2c1C(=O)N(c1ccnc(Cl)c1)C2=O`, the values for the pKi (on Thymidylate synthase [4]; in assay [5]; on Thymidylate synthase [1]) were 5.15, 3.95 and 4.64, respectively. In addition, the inhibition entry at Thymidylate synthase [2] was “inactive”.
As to `CN1C(=O)c2cccc(CNc3ccc(S(=O)(=O)O)cc3)c2C1=O`, the figures for the pKi (in assay [5]; on Thymidylate synthase [1]) were 4.38 and 4.48, respectively. In assay [3], the inhibition entry was “inactive”.
For the molecule `CN1C(=O)c2cccc(CNc3ccc(C(=O)c4ccccc4)cc3)c2C1=O`, the pKi in assay [5] was 4.09; at Thymidylate synthase [1], 4.85. In addition, the inhibition result (on Thymidylate synthase [2]; in assay [3]) was “inactive” each time.
Turning to `COCCCNCc1cccc2c1C(=O)N(C)C2=O`, the results for the pKi on Thymidylate synthase [4] and on Thymidylate synthase [1] were 3.74 and 4.39, respectively.
As to `CN1C(=O)c2cccc(CNc3cccc(S(N)(=O)=O)c3)c2C1=O`, the pKi at Thymidylate synthase [1] was 4.42. The inhibition result (on Thymidylate synthase [2]; in assay [3]) was “inactive” throughout.
In assay [5], `O=C1OC(c2ccc(O)c(Cl)c2)(c2ccc(O)c(Cl)c2)c2cccc3cccc1c23` showed a pKi of 6.22.
Turning to `Cc1cccc2c1C(=O)N(c1cc(-c3ccccc3)ccc1O)C2=O`, the pKi on Thymidylate synthase [4] was 5.70; in assay [5], 5.52; on Thymidylate synthase [1], 5.52.
As to `Cc1cccc2c1C(=O)N(c1ccc(-n3ccnc3)cc1)C2=O`, the negative logarithm of the Ki (pKi) at Thymidylate synthase [4] was 4.48; at Thymidylate synthase [1], 4.47; at Thymidylate synthase [6] it was 3.69.
Take `Cc1cccc2c1C(=O)N(c1ccc(C(=O)NCC(=O)O)cc1)C2=O`: the pKi was 4.96 on Thymidylate synthase [4], 4.38 in assay [5] and 5.52 at Thymidylate synthase [1].
`Cc1cccc2c1C(=O)N(CCc1cccs1)C2=O`: at Thymidylate synthase [1], the pKi is 4.36. Moreover, the inhibition entry (at Thymidylate synthase [2]; in assay [3]) was “inactive” in each case.
For `CC(=O)c1ccc(N2C(=O)c3cccc(C)c3C2=O)cc1`, the pKi in assay [5] was 4.39; at Thymidylate synthase [1], 5.22. The inhibition entry (on Thymidylate synthase [2]; in assay [3]) was “inactive” each time.
In turn, `CN1C(=O)c2cccc(CBr)c2C1=O` showed a negative logarithm of the Ki (pKi) at Thymidylate synthase [1] of 4.02. For the same molecule, the inhibition entry (on Thymidylate synthase [2]; in assay [3]) was “inactive” each time.
Consider `Cc1cccc2c1C(=O)OC2=O`, for which the pKi in assay [5] is 4.31. The inhibition entry (at Thymidylate synthase [2]; in assay [7]; in assay [3]) was “inactive” throughout.
Turning to `Cc1cccc2c1C(=O)N(c1cccc(O)c1)C2=O`, the negative-log Ki (pKi) was 4.21 on Thymidylate synthase [4] and 4.03 at Thymidylate synthase [1]. Moreover, the inhibition result on Thymidylate synthase [2] is “inactive”.
As for `Cc1cc(N2C(=O)c3cccc(C)c3C2=O)ccc1N1C(=O)c2ccc(Cl)cc2C1=O`, the pKi in assay [5] is 4.48; at Thymidylate synthase [1], 4.44. Further, the inhibition entry (at Thymidylate synthase [2]; in assay [3]) was “inactive” each time.
On to `Cc1cccc2c1C(=O)N(c1ccc(C(=O)O)c(O)c1)C2=O`, for which the pKi is 4.44 in assay [5] and 4.85 on Thymidylate synthase [1]. Moreover, the inhibition entry in assay [3] was “inactive”.
In the case of `Cc1cccc2c1C(=O)N(c1cccc3[nH]ccc13)C2=O`, the pKi on Thymidylate synthase [4] is 4.59; on Thymidylate synthase [1] it was 4.60. Further, the inhibition result at Thymidylate synthase [2] was “inactive”.
The molecule `Cc1cccc2c1C(=O)N(c1ccc(C(=N)N)cc1)C2=O` had a pKi on Thymidylate synthase [1] of 5.05. Further, the inhibition entry (on Thymidylate synthase [2]; in assay [3]) was “inactive” in each case.
`CN1C(=O)c2cccc(CNc3ccc(C#N)cc3)c2C1=O`: the negative-log Ki (pKi) on Thymidylate synthase [1] was 4.29. Moreover, the inhibition entry (on Thymidylate synthase [2]; in assay [3]) was “inactive” in each case.
Take `Cc1cccc2c1C(=O)N(c1ccc(C#N)cc1)C2=O`: the pKi at Thymidylate synthase [4] is 5.10; in assay [5] it was 4.51; on Thymidylate synthase [1] it was 4.66. Further, on Thymidylate synthase [2], the inhibition result is “inactive”.
In the same order, the values of `Cc1cccc2c1C(=O)N(c1ccc(C(F)(F)F)cc1)C2=O` are 4.22, 4.74, 4.85 and “inactive”.
With `CCOC(=O)c1ccc(NCc2cccc3c2C(=O)N(C)C3=O)cc1`, the figures for the negative logarithm of the Ki (pKi) at Thymidylate synthase [4] and at Thymidylate synthase [1] were 3.96 and 4.25, respectively. In addition, the inhibition entry on Thymidylate synthase [2] was “inactive”.
On to `Cc1cccc2c1C(=O)N(c1cc(C(=O)O)cc(C(=O)O)c1)C2=O`, for which, on Thymidylate synthase [1], the pKi is 4.70. The inhibition entry (on Thymidylate synthase [2]; in assay [3]) was “inactive” in each case.
For the molecule `CN1C(=O)c2cccc(CNCCP(=O)(O)O)c2C1=O`, in assay [5], the pKi was 4.85. Moreover, the inhibition entry (at Thymidylate synthase [2]; in assay [3]) was “inactive” each time.
Regarding `CN1C(=O)c2cccc(CNCCc3cccs3)c2C1=O`, in assay [5], the pKi is 4.21. Also, the inhibition entry (on Thymidylate synthase [2]; in assay [3]) was “inactive” in each case.

Values taken from ChEMBL document CHEMBL1811787, “Identification of the binding modes of N-phenylphthalimides inhibiting bacterial thymidylate synthase through X-ray crystallography screening” (J Med Chem, 2011).
